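48-hour exposure; five concentrations; linearly interpolated endpoints. The concentration for 50% growth inhibition is given as GI50.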 Active and inactive are the calls of the source. Rule as the data show it: active = GI50 up to about 1.1 µM and inactive = higher.
Key:
Experiment in all cases: NCI-60 cell line screen, 48 h
[1] = tested on: KM12
[2] = tested on: SR
[3] = tested on: SNB-75
[4] = tested on: NCI-H522
[5] = tested on: SK-MEL-28
[6] = tested on: SF-539
[7] = tested on: UACC-62
[8] = tested on: M14
[9] = tested on: SK-MEL-2
[10] = tested on: HOP-62
[11] = tested on: HCT-116
[12] = tested on: HL-60
[13] = tested on: SW-620
[14] = tested on: NCI-H23
[15] = tested on: COLO 205
[16] = tested on: SF-268
[17] = tested on: DMS-273
[18] = tested on: MDA-MB-435
[19] = tested on: A498
[20] = tested on: ACHN

Compound	GI50 [1]	GI50 [2]	GI50 [3]	GI50 [4]	GI50 [5]	GI50 [6]	GI50 [7]	GI50 [8]	GI50 [9]	GI50 [10]	GI50 [11]	GI50 [12]	GI50 [13]	GI50 [14]	GI50 [15]	GI50 [16]	GI50 [17]	GI50 [18]	GI50 [19]	GI50 [20]
COc1cccc2c1C(=O)c1c(O)c3c(c(O)c1C2=O)C[C@@](O)(/C(C)=N\O)C[C@@H]3OC1CC(N)C(O)C(C)O1 (some centres not stated)	2.39 µM (inactive)	0.0615 µM (active)	0.501 µM (active)	0.315 µM (active)	1.64 µM (inactive)	0.931 µM (active)	1.12 µM (inactive)	2.28 µM (inactive)	1.1 µM (active)	1.24 µM (inactive)	0.883 µM (active)	0.218 µM (active)	0.504 µM (active)	1.26 µM (inactive)	0.955 µM (active)	0.931 µM (active)	0.454 µM (active)	8.45 µM (inactive)	0.834 µM (active)	1.9 µM (inactive)
N#Cc1nc(Nc2ccc([N+](=O)[O-])cc2)sc1N	21.9 µM (inactive)	0.675 µM (active)	39.4 µM (inactive)	4.05 µM (inactive)	22.9 µM (inactive)	4.02 µM (inactive)	15.8 µM (inactive)	22 µM (inactive)	21.6 µM (inactive)	20.4 µM (inactive)	11.3 µM (inactive)	3.53 µM (inactive)	20.5 µM (inactive)	4.44 µM (inactive)	14 µM (inactive)	11.8 µM (inactive)	21.2 µM (inactive)		26.2 µM (inactive)	9.62 µM (inactive)
COc1cccc2c1C(=O)c1c(O)c3c(c(O)c1C2=O)C[C@@](O)(C(=O)CO)CC3OC1CC(O)C(O)C(C)O1 (some centres not stated)	0.35 µM (active)	< 0.01 µM (active)	0.167 µM (active)	0.211 µM (active)	0.789 µM (active)	< 0.0358 µM (active)	0.125 µM (active)	0.361 µM (active)	0.608 µM (active)	0.0146 µM (active)	0.0553 µM (active)	0.0267 µM (active)	0.145 µM (active)	0.0879 µM (active)		0.21 µM (active)	0.033 µM (active)	0.834 µM (active)	0.171 µM (active)	0.0527 µM (active)
N#Cc1cccc2c1Nc1ccccc1S2	> 100 µM (inactive)	> 100 µM (inactive)	19.7 µM (inactive)	> 100 µM (inactive)	> 100 µM (inactive)	46.7 µM (inactive)	60.7 µM (inactive)	> 100 µM (inactive)	87.1 µM (inactive)	43.4 µM (inactive)	> 100 µM (inactive)	> 100 µM (inactive)	> 100 µM (inactive)	> 100 µM (inactive)	> 100 µM (inactive)	32.9 µM (inactive)	> 100 µM (inactive)		> 100 µM (inactive)	> 100 µM (inactive)
